These results are taken from PubChem BioAssay (NCI).

Among the test systems are MDA-MB-435; SK-MEL-28 melanoma; SF-539 CNS; HCC-2998 colon; U251 CNS; MOLT-4 leukemia; PC-3 prostate; T-47D breast; NCI-H23 lung; OVCAR-4 ovarian.
Common to all, as to test: NCI anticancer screen, dose series, 48 h

Molecules are shown by their SMILES. Values joined by “and” are separate entries in the source; they are usually repeats but may differ in a detail not shown here. Equal entries are not always repeated.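 Five concentrations, 48 hours, 96-well plates. Abbreviation: GI50, concentration required for 50% inhibition of growth. TGI denotes the concentration required for complete inhibition of growth.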 Some results are limits rather than exact numbers.

Consider `COc1ccc(N=Nc2ccc(O)c(=O)cc2)cc1`, for which the GI50 is 4.02 µM in the experiment on MDA-MB-435; 3.06 µM in the experiment with SK-MEL-28 melanoma; 3.16 µM with SF-539 CNS; 4.04 µM with HCC-2998 colon; 3.2 µM in the experiment on U251 CNS; 3.69 µM in the experiment with MOLT-4 leukemia. Besides, the GI50 with PC-3 prostate is 4.82 µM; in the experiment with T-47D breast, 2.64 µM; with NCI-H23 lung it was 3.02 µM; with OVCAR-4 ovarian, 5.05 µM. Also, the TGI was above 100 µM in the experiment on MDA-MB-435; 31.6 µM with SK-MEL-28 melanoma; 11.5 µM in the experiment on SF-539 CNS; above 100 µM with HCC-2998 colon; above 100 µM in the experiment on U251 CNS; above 100 µM with MOLT-4 leukemia. In addition, the TGI in the experiment on PC-3 prostate, in the experiment on T-47D breast, with NCI-H23 lung and in the experiment with OVCAR-4 ovarian was above 100 µM in each case.

With `COc1ccc2[nH]c(C(=O)OCc3ccc4c(Br)cc(Br)c(O)c4n3)cc2c1`, the GI50 is 0.836 µM in the experiment with MDA-MB-435; 1.26 µM in the experiment with SK-MEL-28 melanoma; 0.768 µM in the experiment with SF-539 CNS; 1.57 µM with HCC-2998 colon; 1.49 µM with U251 CNS; 0.452 µM in the experiment with MOLT-4 leukemia. Moreover, the GI50 was 0.73 µM with PC-3 prostate, 1.15 µM in the experiment on T-47D breast, 1.38 µM in the experiment with NCI-H23 lung and 0.895 µM in the experiment on OVCAR-4 ovarian. For the same compound, the TGI in the experiment on MDA-MB-435 was found to be 2.2 µM; with SK-MEL-28 melanoma, 2.53 µM; in the experiment on SF-539 CNS, 2.05 µM; in the experiment with HCC-2998 colon it was 3.06 µM; with U251 CNS it was 2.92 µM; with MOLT-4 leukemia, 2.17 µM. Besides, the TGI was determined as 2.27 µM in the experiment with PC-3 prostate, 3.57 µM in the experiment on T-47D breast, 2.99 µM in the experiment on NCI-H23 lung and 2.25 µM in the experiment with OVCAR-4 ovarian.

On to `CN1C(=O)C(N=Nc2ccc([N+](=O)[O-])cc2)SC1=S` (stereo not given), for which the GI50 was 3.86 µM and 16.1 µM in the experiment with MDA-MB-435; 11.6 µM and 27.2 µM in the experiment on SK-MEL-28 melanoma; 6.57 µM and 7.08 µM with SF-539 CNS; 3.21 µM and 6.71 µM in the experiment on HCC-2998 colon; 3.3 µM and 7.63 µM in the experiment on U251 CNS; 5.82 µM and 5.81 µM in the experiment with MOLT-4 leukemia. Also, the GI50 in the experiment with PC-3 prostate is 1.6 µM and 4.65 µM; with T-47D breast, 2.71 µM and 4.26 µM; with NCI-H23 lung it was 3.89 µM and 7.46 µM; in the experiment on OVCAR-4 ovarian, 6.35 µM and 9.5 µM. The TGI was 32.3 µM and 77.1 µM with MDA-MB-435; above 100 µM with SK-MEL-28 melanoma; 58.1 µM and 70.4 µM with SF-539 CNS; 48.2 µM and 49.6 µM in the experiment with HCC-2998 colon; 70.8 µM and > 100 µM with U251 CNS; above 100 µM in the experiment on MOLT-4 leukemia. For the same compound, the TGI in the experiment with PC-3 prostate was above 100 µM; in the experiment on T-47D breast, > 100 µM and 47.5 µM; in the experiment with NCI-H23 lung, 77.1 µM and 76.9 µM; in the experiment with OVCAR-4 ovarian it was above 100 µM.

Regarding `CC(C)(C)N1CC1CNC(=O)C(=O)NCC1CN1C(C)(C)C` (stereo not given), the TGI in the experiment with MDA-MB-435 is above 100 µM; with SK-MEL-28 melanoma, 11.1 µM; in the experiment with SF-539 CNS it was 13.7 µM; with HCC-2998 colon it was 14.8 µM; in the experiment on U251 CNS, 7.29 µM; in the experiment with MOLT-4 leukemia it was 31.3 µM. Besides, the TGI is above 100 µM with PC-3 prostate, 98.1 µM in the experiment with T-47D breast, 5.96 µM with NCI-H23 lung and 60.2 µM in the experiment with OVCAR-4 ovarian.

`Cn1cc(-c2csc(-c3ccccc3)n2)c2cccnc21`: the GI50 in the experiment on MDA-MB-435 is 11.2 µM; in the experiment on SK-MEL-28 melanoma, 15.7 µM; with SF-539 CNS it was 14.2 µM; in the experiment on HCC-2998 colon it was 16.7 µM; in the experiment on U251 CNS, 13.6 µM; in the experiment on MOLT-4 leukemia it was 10.3 µM. In addition, the GI50 was 14.4 µM with PC-3 prostate, 6.04 µM with T-47D breast, 16.2 µM with NCI-H23 lung and 23.3 µM with OVCAR-4 ovarian. Also, the TGI in the experiment on MDA-MB-435 is 26.5 µM; with SK-MEL-28 melanoma it was 31.5 µM; with SF-539 CNS it was 28.3 µM; in the experiment with HCC-2998 colon, 31.1 µM; in the experiment with U251 CNS, 28 µM; in the experiment with MOLT-4 leukemia, 29 µM. In addition, the TGI in the experiment on PC-3 prostate is 39.1 µM; in the experiment on T-47D breast, 28.5 µM; in the experiment on NCI-H23 lung it was 38 µM; in the experiment on OVCAR-4 ovarian it was 71.4 µM.

As to `CC(=O)OC1C(O)C(C)OC(OC2C(OC(=O)C3CCC4C(C3)OC3(CC(OC(=O)/C=C/c5ccccc5)C(C)CO3)C43CO3)OC(C)C(O)C2OC(C)=O)C1O` (stereo not given), the TGI turned out to be 0.00649 µM in the experiment with MDA-MB-435; 0.0305 µM with SK-MEL-28 melanoma; 0.0285 µM in the experiment with SF-539 CNS; 0.0148 µM in the experiment on HCC-2998 colon; 0.0493 µM with U251 CNS; 0.032 µM in the experiment with MOLT-4 leukemia. For the same compound, the TGI in the experiment on PC-3 prostate worked out at 0.0442 µM; in the experiment with T-47D breast, 0.0441 µM; in the experiment with NCI-H23 lung, 0.0615 µM; with OVCAR-4 ovarian, 0.051 µM.

In the case of `CC(=O)Oc1ccc(C2OC(c3ccc4ccccc4c3OC(C)=O)=NN2C(C)=O)c(OC(C)=O)c1` (stereo not given), the GI50 in the experiment on MDA-MB-435 was 0.638 µM; in the experiment on SK-MEL-28 melanoma, 0.559 µM; in the experiment on SF-539 CNS, 0.342 µM; in the experiment on HCC-2998 colon, 0.427 µM; in the experiment on U251 CNS, 0.316 µM; in the experiment with MOLT-4 leukemia, 0.454 µM. The GI50 with PC-3 prostate was 0.448 µM; with T-47D breast it was 0.664 µM; with NCI-H23 lung, 1.28 µM; in the experiment with OVCAR-4 ovarian, 0.291 µM. Moreover, the TGI is above 65 µM in the experiment with MDA-MB-435; above 53.9 µM with SK-MEL-28 melanoma; 12.3 µM in the experiment on SF-539 CNS; 29 µM in the experiment with HCC-2998 colon; 30.4 µM in the experiment with U251 CNS; above 100 µM in the experiment on MOLT-4 leukemia. For the same compound, the TGI was above 59.6 µM with PC-3 prostate, above 52.6 µM in the experiment on T-47D breast, 97.4 µM with NCI-H23 lung and above 75.9 µM with OVCAR-4 ovarian.
